Values quoted from earlier work, collected in patent publication US20120021064A1, “COMPOSITIONS FOR BOWEL PREPARATION AND METHODS OF USE THEREOF” (Salix Pharmaceuticals, Ltd., priority 2009, published 2012).
Where two headings read alike, the source gives them in different places.

SMILES: CC(=O)Oc1ccc(C(c2ccc(OC(C)=O)cc2)c2ccccn2)cc1 [Bisacodyl]
- time to produce a bowel movement (enemas): about 20 minutes
- time to produce a bowel movement (suppositories): about an hour
